Data reported in PubChem BioAssay (NCI).
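Five compound concentrations were applied to cells in 96-well plates for 48 hours; endpoints were derived by simple linear interpolation of the resulting dose-response curve. TGI marks complete inhibition of growth.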

Legend:
Test in all cases: NCI tumour cell line growth inhibition, 48 h
A549 NSCLC = tested on: A549 NSCLC
CAKI-1 renal = tested on: CAKI-1 renal
COLO 205 colon = tested on: COLO 205 colon
HL-60(TB) leukemia = tested on: HL-60(TB) leukemia
HOP-62 NSCLC = tested on: HOP-62 NSCLC
K-562 leukemia = tested on: K-562 leukemia
LOX IMVI melanoma = tested on: LOX IMVI melanoma
MCF7 breast = tested on: MCF7 breast
NCI-H23 lung = tested on: NCI-H23 lung
OVCAR-5 ovarian = tested on: OVCAR-5 ovarian
RPMI-8226 leukemia = tested on: RPMI-8226 leukemia
SF-268 CNS = tested on: SF-268 CNS
SK-MEL-28 melanoma = tested on: SK-MEL-28 melanoma
SK-MEL-5 melanoma = tested on: SK-MEL-5 melanoma
SNB-19 CNS = tested on: SNB-19 CNS
SR leukemia = tested on: SR leukemia
T-47D breast = tested on: T-47D breast

Row | Structure (SMILES) | TGI (A549 NSCLC) | TGI (CAKI-1 renal) | TGI (COLO 205 colon) | TGI (HL-60(TB) leukemia) | TGI (HOP-62 NSCLC) | TGI (K-562 leukemia) | TGI (LOX IMVI melanoma) | TGI (MCF7 breast) | TGI (NCI-H23 lung) | TGI (OVCAR-5 ovarian) | TGI (RPMI-8226 leukemia) | TGI (SF-268 CNS) | TGI (SK-MEL-28 melanoma) | TGI (SK-MEL-5 melanoma) | TGI (SNB-19 CNS) | TGI (SR leukemia) | TGI (T-47D breast)
1 | Cc1ccnc2[nH]c(-c3ccc(F)cc3)cc(=O)c12 | > 100 µM | > 100 µM | > 76.8 µM | 38.5 µM | > 100 µM | > 100 µM | > 100 µM | > 100 µM | > 100 µM | > 100 µM | > 100 µM | > 100 µM | > 100 µM | > 100 µM | > 100 µM | 25.9 µM | > 100 µM
2 | NC(=O)SCCC(N)C(=O)O (configuration not stated) | > 100 µM | > 100 µM | > 100 µM | > 100 µM | > 100 µM | > 100 µM | > 100 µM | > 100 µM | > 100 µM | > 100 µM | > 100 µM | > 100 µM | > 100 µM | > 100 µM | > 100 µM | > 100 µM | > 100 µM
3 | CCN(CCCl)c1cc(CN(C)C)cc(NC(=O)C23CCC(C(=O)Nc4cc(CN(C)C)cc(N(CC)CCCl)c4)(CC2)CC3)c1 | 5.14 µM | 23.2 µM | 2.81 µM | > 100 µM | 2.76 µM | 4.73 µM | 1.57 µM | 2.01 µM | 4.71 µM | 10.4 µM | > 100 µM | 16 µM | 3.55 µM | 3.33 µM | 3.3 µM | 24.2 µM | 19.2 µM
4 | CC(C)Oc1cccc(N2C(=NCCc3c[nH]c4ccccc34)Nc3ccncc3S2(=O)=O)c1 | > 100 µM | > 100 µM | 4.08 µM | 65.4 µM | > 100 µM | > 100 µM | > 100 µM | > 100 µM | > 100 µM | > 100 µM | > 100 µM | > 100 µM | > 100 µM | > 100 µM | > 100 µM | > 100 µM | > 100 µM
5 | CC(C)C[C@H](NC(=O)[C@H](Cc1ccc(F)cc1)NC(=O)c1ccccn1)B(O)O | 0.165 µM | < 0.0124 µM | 1.12 µM | > 100 µM | < 0.01 µM | > 100 µM | < 0.01 µM | 0.166 µM | < 0.01 µM | < 0.01 µM | > 100 µM | < 0.01 µM | < 0.01 µM | < 0.01 µM | > 33.4 µM | < 0.01 µM | < 0.01 µM
6 | CC(=O)c1ccc2c(c1)CC1(C2)Cc2ccc3c(c2C1=O)CCC3 (configuration not stated) | > 100 µM | > 100 µM | 39.9 µM | 48.3 µM | > 100 µM | > 100 µM | > 100 µM | 72 µM | > 100 µM | > 100 µM | > 100 µM | > 100 µM | 56.5 µM | 28.4 µM | > 100 µM | > 100 µM | 94.5 µM
7 | C[N+](C)(C)CC(=O)N/N=C(\C(=O)NC1=C(Cl)C(=O)c2ccccc2C1=O)C(C#N)c1nc(-c2ccc([N+](=O)[O-])cc2)cs1 (configuration not stated) | 19.4 µM | 48.6 µM | 35 µM | 47.4 µM | 34.4 µM | 61.1 µM | 9.48 µM | 22.3 µM | 11.4 µM | 26.3 µM | 47 µM | 38.4 µM | 17.6 µM | 2.7 µM | 39.8 µM | 52.5 µM | 37.9 µM
8 | N=CN=CC(=S)O[C@@H]1C(=O)N2CCC[C@@]23CCCC[C@@H]13 | > 12.5 µM | > 12.5 µM | > 12.5 µM | > 12.5 µM | > 12.5 µM | > 12.5 µM | > 12.5 µM | > 12.5 µM | > 12.5 µM | > 12.5 µM | > 12.5 µM | > 12.5 µM | > 12.5 µM | > 12.5 µM | > 12.5 µM | > 12.5 µM | > 12.5 µM
9 | C=C1C(=O)OC2C3C(=C)[C@@H](OC(C)=O)CC3C(C)=CC(OC(=O)C(C)(OC(C)=O)C(C)OC(C)=O)[C@@H]12 (some centres not stated) | 70.4 µM | 23.2 µM | 28.2 µM | 6.54 µM | > 100 µM | 32.6 µM | 27.3 µM | 24.1 µM | 38.3 µM | 42.6 µM | 38.5 µM | 51.1 µM | 29 µM | 25.3 µM | > 100 µM | > 100 µM | 40.5 µM
10 | O=S1(=O)OCCOS(=O)(=O)C1Cc1cccc2ccccc12 | > 100 µM | > 100 µM | 29.2 µM | 29.9 µM | 49.1 µM | 38.2 µM | 55.4 µM | 37.6 µM | 79.5 µM | 60.9 µM | 85.3 µM | 57.8 µM | 21.5 µM | 28.2 µM | 87.3 µM | 64.9 µM | > 100 µM
11 | CCN(CC)Cc1ccc(C(=S)Nc2ccc(C)cc2)s1 | 36.1 µM | 29.6 µM | 31.7 µM | 27 µM | 34.5 µM | 26.4 µM | 30.2 µM | 25.1 µM | 26.5 µM | 29.5 µM | 46.8 µM | 4.42 µM | 30.5 µM | 26.5 µM | 34.7 µM | 37.6 µM | 37.4 µM
12 | CCCCCCCCCCCCCCCCOP(=O)(O)OCC(NC(C)=O)C(=O)O (configuration not stated) | > 100 µM | > 100 µM | > 100 µM | > 100 µM | 36.9 µM | > 100 µM | > 100 µM | > 100 µM | > 100 µM | > 100 µM | > 100 µM | 95.9 µM | > 100 µM | > 100 µM | 35.6 µM | > 100 µM | > 100 µM
13 | OC(c1ccc2c(c1)OCO2)c1ccc2c(c1)OCO2 | > 100 µM | > 100 µM | > 100 µM | > 100 µM | > 100 µM | > 100 µM | > 100 µM | > 100 µM | > 100 µM | > 100 µM | > 100 µM | > 100 µM | > 100 µM | > 100 µM | > 100 µM | > 100 µM | > 100 µM
14 | CC(NC(=O)c1ccc(NP(=O)(OCc2ccc([N+](=O)[O-])o2)N(C)CCCCCl)cc1)c1ccc(OCC2CCCCC2)c(C(N)=O)c1 (configuration not stated) | 33.2 µM | > 100 µM | 22.8 µM | 50 µM | 43.4 µM | 83.2 µM | 27 µM | 18.3 µM | 34.8 µM | 73.7 µM | 21.1 µM | 36.1 µM | 31.6 µM | 17 µM | 90.8 µM | 40.7 µM | 25.5 µM
15 | CN(C)CCNC(=O)Cn1cnc2cccc([N+](=O)[O-])c2c1=O | > 100 µM | > 100 µM | > 100 µM | > 100 µM | > 100 µM | > 100 µM | > 100 µM | > 100 µM | > 100 µM | > 100 µM | > 100 µM | > 100 µM | > 100 µM | > 100 µM | > 100 µM | > 100 µM | > 100 µM
16 | COc1cccc(Nc2nc(N)nc(N)c2N)c1 | > 100 µM | 58.3 µM | > 100 µM | > 100 µM | > 100 µM | > 100 µM | 40.2 µM | 95 µM | > 100 µM | > 100 µM | 68.3 µM | > 100 µM | > 100 µM | 88.2 µM | > 100 µM | 49.6 µM | > 100 µM
17 | O=c1[nH]nc(-c2ccccc2)n1/N=C/c1ccccc1Cl | > 100 µM | > 100 µM | > 100 µM | 48 µM | > 100 µM | > 100 µM | > 100 µM | > 100 µM | 87.7 µM | > 100 µM | 94.4 µM | > 100 µM | > 100 µM | 36.1 µM | > 100 µM | 85.6 µM | > 100 µM
18 | CCOc1ccccc1-c1nc2c(s1)C(=O)c1ccccc1C2=O | 36.9 µM | 26.7 µM | 58.9 µM | 4.4 µM | 28.7 µM | 32.4 µM | 16.7 µM | 46.3 µM | 31 µM | 40.1 µM | 54.8 µM | 29 µM | 30.4 µM | 18.7 µM | 65.3 µM | > 100 µM | 63.9 µM
19 | CSc1nc(C)c(CCOC(C)=O)c(Cl)n1 | > 100 µM | > 100 µM | > 100 µM | > 100 µM | > 100 µM | > 100 µM | > 100 µM | > 100 µM | > 100 µM | > 100 µM | > 100 µM | > 100 µM | > 100 µM | > 100 µM | > 100 µM | > 100 µM | > 100 µM
20 | CCOC(=O)c1c(C)n([O-])c2cc(Cl)c(Cl)cc2[n+]1=O | 35.6 µM | 53 µM | 39 µM | 24.6 µM | 57.8 µM | > 100 µM | 38.4 µM | > 100 µM | 26.6 µM | > 100 µM | 34.9 µM | 76 µM | > 100 µM | 36.5 µM | > 100 µM | 25.8 µM | 60.1 µM
21 | O=C1/C(=C/c2ccc(Oc3ccccc3)cc2)N=C(c2ccccc2)N1c1ccc(S(=O)(=O)Nc2nccs2)cc1 | > 100 µM | > 100 µM | 22.2 µM | 34.9 µM | 79.4 µM | > 100 µM | 70.5 µM | 38 µM | > 100 µM | > 100 µM | 32.3 µM | > 100 µM | > 100 µM | 49.8 µM | > 100 µM | 25 µM | 77.1 µM
